From patent US20240182456A1, “2-((4-((S)-2-(4-CHLORO-2-FLUOROPHENYL)-2-METHYLBENZO[D][1,3]DIOXOL-4-YL)PIPERIDIN-1-YL)METHYL)-1-(((S)-OXETAN-2-YL)METHYL)-1H-IMIDAZOLE DERIVATIVES AS ACTIVATORS OF THE GLP1 RECEPTOR FOR THE TREATMENT OF OBESITY” (Novartis AG, priority 2021, published 2024)
Values belong to the compound of their own block, whether it stands above or below them.

Columns and labels:
[1] = molecular target: human GLP1R (hGLP1R) (Homo sapiens, UniProt P43220); experiment: Human GLP1R cAMP agonist assay (GloSensor); assay type: cell-based; details: HEK293-SNAP-hGLP1R-GloSensor cells; for Emax: read-out: Emax mean; for EC50: intracellular cAMP, mean n=3 where SEM is given
human GLP1R (hGLP1R), sequence (P43220 24-463): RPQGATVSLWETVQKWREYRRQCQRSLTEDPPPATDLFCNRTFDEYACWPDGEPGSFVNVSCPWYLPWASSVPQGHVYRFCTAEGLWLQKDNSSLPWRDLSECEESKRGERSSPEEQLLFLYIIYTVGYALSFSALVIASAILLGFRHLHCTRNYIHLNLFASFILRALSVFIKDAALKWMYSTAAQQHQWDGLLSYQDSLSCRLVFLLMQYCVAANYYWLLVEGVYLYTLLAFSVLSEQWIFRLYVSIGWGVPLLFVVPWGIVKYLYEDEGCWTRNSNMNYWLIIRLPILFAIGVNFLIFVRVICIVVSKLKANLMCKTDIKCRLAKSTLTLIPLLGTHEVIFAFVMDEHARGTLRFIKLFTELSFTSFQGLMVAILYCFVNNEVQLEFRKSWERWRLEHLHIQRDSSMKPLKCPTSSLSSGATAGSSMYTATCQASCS
Protocol: Compounds 1 to 31 were tested in the following cellular assays that measure the intracellular cAMP concentration, beta-arrestin recruitment and receptor internalization. The cAMP is generated by the activation of GLP1R. The cAMP data obtained is shown in Table 1 (where S.E.M. is included, mean n=3 independent experiments+/−S.E.M). Beta-arrestin is recruited upon activation of GLP1R and the data obtained are shown in Table 2 (mean n=2 independent experiments, +/−S.D). The extent to which the GLP1R is internalized into the cell and away from the plasma membrane following activation is also shown in Table 2 (mean n=2 independent experiments, +/−S.D). EC50 for each assay is defined as the concentration of the compound that leads to half of the maximum response (after baseline correction). Emax is defined as the maximum response observed for the test compound, normalized to the maximum response observed for the endogenous ligand (GLP1(7-36)) to GLP1R.
Human GLP1R cAMP Agonist Assay
The agonist activity of compounds was determined using the GloSensor™ cAMP Assay (Promega Corp.), which measures changes in the intracellular concentration of cAMP after ligand activation of GPCRs. The assay uses a biosensor encoded by pGloSensor™-22F cAMP plasmid (Promega, cat #E2301) with cAMP binding domains fused to a mutant form of Photinus pyralis luciferase. Binding to cAMP causes conformational changes that promote large increases in light output, which can be measured by a luminescence detector. HEK293-SNAP-hGLP1R-GloSensor cells stably overexpressing the human GLP1 receptor (hGLP1R) and pGloSensor™-22F were seeded in white 384-well poly-D-Lysine coated plates (Greiner Bio One, cat #781945) in CO2-independent media (Gibco cat #18045-088 with 1.0% FBS, 2 mM L-glutamine, penicillin and streptomycin) and incubated overnight at 37° C., 5% CO2 with humidity. The assay was started the following morning by adding an equal volume of CO2-independent media containing 4% v/v dilution of the GloSensor substrate (Promega, cat #E1291) to all wells. The cell plate was incubated at rt for 2 h in the dark. The Biomek 7 (Beckman Coulter) instrument was used for the liquid handling steps. To generate duplicate dose response curves, 3-fold serially diluted compounds were added in to the cell assay plate to a final volume of 60 μL with final concentrations ranging from 30 μM through 0.06 μM in CO2-independent media containing 0.1% BSA, 0.5 mM IBMX and 0.4% DMSO. In the same plate and assay buffer as the tested compounds, were EC100 control wells containing GLP1 (7-36) peptide (Bachem, cat #H-6795) at a final concentration of 2 nM and also EC0 control wells containing no peptide. This plate was incubated at rt in the dark for 12 min after adding the compounds to the cells. Luminescence was then measured with an Envision 2104 Multilabel reader with “TRF Light Unit, 337 nm” (PerkinElmer) using the Ultra-Sensitive protocol setting “384-well US luminescence detector” with the 384-well luminescence aperture, 0.1 seconds per well. cAMP activity was calculated as percent of the GLP1 (7-36) EC100 control wells: [(sample signal−mean EC0 signal)/(mean EC100 of GLP1 (7-36) signal−mean EC0 signal)}*100. Curve fitting for EC50 determinations was performed in the Helios module of the software package DAVID. The 4-parameter logistic model, Hill slope was used: y=Ainf+(A0−Ainf)/(1+(x/AC50)^Hill Slope) where y is the functional response; x is the compound concentration; A0 is the minimum value (at 0 dose); Ainf is the maximum value (at infinite dose); AC50 corresponds to the point of inflection (i.e. the point on the sigmoid shaped curve halfway between A0 and Ainf). The EC50 value was represented by the AC50 value calculated from Helios in μM. Emax is the maximal activity detected within the concentration range, derived from the fitted curve. […]

[2] = Pharmacokinetics in C57BL/6 mice (i.v. and oral); details: for AUC(0-inf) / Vd / clearance / half-life / Cmax / Tmax: male, C57BL/6, mouse
Protocol: Blood concentration versus time profiles were obtained from 2 groups of 3 male mice. The compound was administered intravenously (i.v.) by bolus injection (5 mL/kg) at a dose of 1 mg/kg in N-methyl-2-pyrrolidone (10%) and 4% bovine serum albumins (BSA) in phosphate-buffered saline (PBS) (90%) or orally administered at a dose of 3 mg/kg (10 mL/kg) as a homogenous suspension of Water (99.4%), Tween 80 (0.1%) and methylcellulose (0.5%). Following compound administration, blood (10 μL/time point) were collected by puncture of the tail vein into ethylenediaminetetraacetic (EDTA)-coated tubes, at 0.083 (i.v. only), 0.25, 0.5, 1, 3, 7, & 24 hours post dose.
Bioanalysis: An aliquot of 10 μL of blood sample and matrix calibration standards were added to a 96-well plate. The samples were extracted using a protein precipitation procedure with addition of 80 μL acetonitrile containing internal standard. The samples were vortexed and centrifuged at 3000 rpm for 5 minutes. A 70 μL aliquot of supernatant was transferred to a clean 96-well plate and a 70 μL of water was added to each well and vortexed. Samples were analyzed and quantified by LC-MS/MS using the conditions outlined below.
• Mass Spectrometer: AP16500+ • Liquid Chromatograph: Agilent 1290 for Compound 3; Shimadzu LC30 AD for Compound 5 • Autosampler (ALS): Agilent 1290 for Compound 3; Shimadzu SIL30AC for Compound 5
• LC Column Acquity BEH C18, 50×2.1 mm, 1.7 μm • Solvent A: • 5:95:0.1 (v:v:v) Acetonitrile:Water:Formic Acid for Compound 3 • 100:0.1 (v:v) Water:Formic acid for Compound 5 • Solvent B: • 50:50:0.1 (v:v:v) Acetonitrile:Methanol:Formic Acid for Compound 3 • 100:0.1 (v:v) Acetonitrile:Formic acid for Compound 5 • Injection Volume [μL]: 1 for Compound 5; 20 for Compound 3 • Column Oven Temp. [° C.]: 50 Compound 3; 40 for Compound 5 • ALS Temp. [° C.]: 5
• Ion Source: TIS • Polarity: Positive • Temperature: 550 • Gas 1: 55 • Gas 2: 55 • Curtain Gas: 20 • Ion Spray Voltage [V]: 5500 for Compound 5; 4500 for Compound 3 • CAD Gas: 9

[3] = cAMP, normalized to GLP1(7-36) maximum response

SMILES: C[C@]1(c2ccc(Cl)cc2F)Oc2cccc(C3CCN(Cc4nc(-c5nnn[nH]5)c(C(F)(F)F)n4C[C@@H]4CCO4)CC3)c2O1 [Compound C-25, 4-((S)-2-(4-chloro-2-fluorophenyl)-2-methylbenzo[d][1,3]dioxol-4-yl)-1-((1-(((S)-oxetan-2-yl)methyl)-4-(1H-tetrazol-5-yl)-5-(trifluoromethyl)-1H-imidazol-2-yl)methyl)piperidine]
Emax [1, 3]: 110%
EC50 [1]: 8.63 nM

SMILES: C[C@]1(c2ccc(Cl)cc2F)Oc2cccc(C3CCN(Cc4ncc(/C=C/C(=O)O)n4C[C@@H]4CCO4)CC3)c2O1 [Compound 1]
AUC(0-inf) ([2]; whole blood, iv, 1 mg/kg): 0.509 ± 0.389 µM·h
Vd ([2]; whole blood, iv, 1 mg/kg): 4.83 ± 1.79 L/kg
clearance ([2]; whole blood, iv, 1 mg/kg): 82.3 ± 51.7 mL/min/kg
half-life ([2]; whole blood, iv, 1 mg/kg): 1.06 ± 0.141 h
AUC(0-inf) ([2]; whole blood, po, 3 mg/kg): 0.538 ± 0.136 µM·h
Cmax ([2]; whole blood, po, 3 mg/kg): 240 ± 75.4 nM
Tmax ([2]; whole blood, po, 3 mg/kg): 0.75 ± 0.434 h
half-life ([2]; whole blood, po, 3 mg/kg): 1.22 ± 0.305 h

SMILES: Cc1nc(CN2CCC(c3cccc4c3O[C@@](C)(c3ccc(Cl)cc3F)O4)CC2)n(C[C@@H]2CCO2)c1C(=O)O [Compound 3]
BAV ([2]; male C57BL/6 mice, 3 mg/kg oral dose vs 1 mg/kg i.v.): 50.1 ± 19.4%
AUC(0-inf) ([2]; in vivo, iv, 1 mg/kg): 2.79 ± 1.35 µM·h
Vd ([2]; in vivo, iv, 1 mg/kg): 0.903 ± 0.282 L/kg
clearance ([2]; in vivo, iv, 1 mg/kg): 12.3 ± 4.78 mL/min/kg
half-life ([2]; in vivo, iv, 1 mg/kg): 1.28 ± 0.223 h
AUC(0-inf) ([2]; in vivo, po, 3 mg/kg): 3.74 ± 0.641 µM·h
Cmax ([2]; in vivo, po, 3 mg/kg): 1470 ± 354 nM
Tmax ([2]; in vivo, po, 3 mg/kg): 0.667 ± 0.289 h
half-life ([2]; in vivo, po, 3 mg/kg): 1.84 ± 0.8 h

Continued, values first:

Emax [1, 3]: 113%
EC50 [1]: 2.96 nM
SMILES: CCc1nc(CN2CCC(c3cccc4c3O[C@@](C)(c3ccc(Cl)cc3F)O4)CC2)n(C[C@@H]2CCO2)c1C(=O)O [Compound C-27, 2-((4-((S)-2-(4-chloro-2-fluorophenyl)-2-methylbenzo[d][1,3]dioxol-4-yl)piperidin-1-yl)methyl)-4-ethyl-1-(((S)-oxetan-2-yl)methyl)-1H-imidazole-5-carboxylic acid]

Emax [1, 3]: 104%
EC50 [1]: 1.2 nM
SMILES: CC(Cc1cnc(CN2CCC(c3cccc4c3O[C@@](C)(c3ccc(Cl)cc3F)O4)CC2)n1C[C@@H]1CCO1)C(=O)O (single isomer, unassigned) [Compound C-17a]

Emax mean [1, 3]: 106%
EC50 [1]: 1.2 nM
SMILES: CC(Cc1cnc(CN2CCC(c3cccc4c3O[C@@](C)(c3ccc(Cl)cc3F)O4)CC2)n1C[C@@H]1CCO1)C(=O)O (single isomer, unassigned) [Compound C-17b]

Emax [1, 3]: 109%
EC50 [1]: 0.418 nM
SMILES: Cc1nc(CN2CCC(c3cccc4c3O[C@@](C)(c3ccc(Cl)cc3F)O4)CC2)n(C[C@@H]2CCO2)c1C1CC1C(=O)O (stereo partly drawn) [Compound C-9]
